Read-outs that look alike come from different tables or passages of the source.
Biological target: human activated kallikrein enzyme (plasma kallikrein) (Homo sapiens (Human), UniProt P03952)
Assay: Inhibition of human activated plasma kallikrein, fluorogenic peptide substrate assay, 500 pM enzyme format
Format: biochemical
In short: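 Buffer 20 mM Tris pH 7.5, EDTA, NaCl, PEG-400, Triton X-100; 300 uM Pro-Phe-Arg-AMC; enzyme–inhibitor preincubation 30 min RT. Format one: 500 pM kallikrein, 10 min RT reaction; format two: 5 pM kallikrein, 18 h RT reaction. Fluorescence read at 460 nm (380 nm excitation).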

[1] = 500 pM activated kallikrein enzyme, 300 uM Pro-Phe-Arg-7-amido-4-methylcoumarin substrate, 30 min preincubation, 10 min at RT, read-out: Primary Dose Response Assay: Average EC50

human activated kallikrein enzyme (plasma kallikrein), sequence (P03952 391-638): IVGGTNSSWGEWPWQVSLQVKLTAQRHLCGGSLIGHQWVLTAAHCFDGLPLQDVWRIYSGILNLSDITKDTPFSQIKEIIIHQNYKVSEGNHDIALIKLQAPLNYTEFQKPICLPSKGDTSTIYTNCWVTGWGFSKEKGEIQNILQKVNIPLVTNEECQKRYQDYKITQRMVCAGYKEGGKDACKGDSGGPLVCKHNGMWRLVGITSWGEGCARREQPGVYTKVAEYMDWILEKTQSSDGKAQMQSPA
human activated kallikrein enzyme (plasma kallikrein), sequence (P03952 20-390 partner): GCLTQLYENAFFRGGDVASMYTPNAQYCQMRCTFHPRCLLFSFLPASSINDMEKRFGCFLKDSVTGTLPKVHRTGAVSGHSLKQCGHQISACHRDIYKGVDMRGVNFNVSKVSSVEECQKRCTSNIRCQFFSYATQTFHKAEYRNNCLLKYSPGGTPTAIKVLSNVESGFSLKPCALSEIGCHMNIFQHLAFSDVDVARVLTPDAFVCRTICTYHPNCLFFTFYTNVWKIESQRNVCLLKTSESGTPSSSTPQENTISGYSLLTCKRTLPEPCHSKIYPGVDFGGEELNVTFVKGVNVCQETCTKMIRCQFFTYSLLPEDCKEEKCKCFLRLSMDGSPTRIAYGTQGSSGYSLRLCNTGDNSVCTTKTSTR

Row | Compound | EC50 [1] | further results
1 | CCOC(=O)C(C)(C)Cc1cc(C2CC2)cn2cc(Cn3cc(C(=O)NCc4ncn5ccc(Cl)c(F)c45)nn3)nc12 [Example I-205, ethyl 3-(2-((4-(((7-chloro-8-fluoroimidazo[1,5-a]pyridin-1-yl)methyl)carbamoyl)-1H-1,2,3-triazol-1-yl)methyl)-6-cyclopropylimidazo[1,2-a]pyridin-8-yl)-2,2-dimethylpropanoate] | < 1 nM | 
2 | O=C(NCc1ncn2ccc(Cl)c(F)c12)c1cn(Cc2cn3cc(C4CC4)cc(N4CCCC4=O)c3n2)nn1 [Example I-203, N-((7-chloro-8-fluoroimidazo[1,5-a]pyridin-1-yl)methyl)-1-((6-cyclopropyl-8-(2-oxopyrrolidin-1-yl)imidazo[1,2-a]pyridin-2-yl)methyl)-1H-1,2,3-triazole-4-carboxamide] | < 1 nM | 
3 | CCOC(=O)C(C)(C)C(O)c1cc(C2CC2)cn2cc(Cn3cc(C(=O)NCc4ncn5ccc(Cl)c(F)c45)nn3)nc12 (stereo not drawn) [Example I-241a, ethyl 3-(2-((4-(((7-chloro-8-fluoroimidazo[1,5-a]pyridin-1-yl)methyl)carbamoyl)-1H-1,2,3-triazol-1-yl)methyl)-6-cyclopropylimidazo[1,2-a]pyridin-8-yl)-3-hydroxy-2,2-dimethylpropanoate] | < 1 nM | 
4 | O=C(NCc1ncn2ccc(Br)c(F)c12)c1cn(Cc2cn3cc(C4CC4)cc(F)c3n2)nn1 [Example I-200, N-((7-bromo-8-fluoroimidazo[1,5-a]pyridin-1-yl)methyl)-1-((6-cyclopropyl-8-fluoroimidazo[1,2-a]pyridin-2-yl)methyl)-1H-1,2,3-triazole-4-carboxamide] | < 1 nM | 
5 | O=C(NCc1ncn2ccc(Br)cc12)c1cnn(Cc2cn3cc(C(F)(F)F)ccc3n2)c1 [Example I-19, N-((7-bromoimidazo[1,5-a]pyridin-1-yl)methyl)-1-((6-(trifluoromethyl)imidazo[1,2-a]pyridin-2-yl)methyl)-1H-pyrazole-4-carboxamide] | 1 to 10 nM | 
6 | O=C(O)Cc1cc(C2CC2)cn2cc(Cn3cc(C(=O)NCc4ncn5ccc(Br)c(F)c45)cn3)nc12 [Example I-106, 2-(2-((4-(((7-bromo-8-fluoroimidazo[1,5-a]pyridin-1-yl)methyl)carbamoyl)-1H-pyrazol-1-yl)methyl)-6-cyclopropylimidazo[1,2-a]pyridin-8-yl)acetic acid] | < 1 nM | 
7 | O=C(NCc1ncn2ccc(Cl)c(F)c12)c1cn(Cc2cn3cc(C4CC4)cc(Br)c3n2)nn1 [Example I-204, 1-((8-bromo-6-cyclopropylimidazo[1,2-a]pyridin-2-yl)methyl)-N-((7-chloro-8-fluoroimidazo[1,5-a]pyridin-1-yl)methyl)-1H-1,2,3-triazole-4-carboxamide] | < 1 nM | 
8 | Cc1ccc2nc(Cn3cc(C(=O)NCc4ncn5ccc(Cl)c(Cl)c45)cn3)cn2c1 [Example I-33, N-((7,8-dichloroimidazo[1,5-a]pyridin-1-yl)methyl)-1-((6-methylimidazo[1,2-a]pyridin-2-yl)methyl)-1H-pyrazole-4-carboxamide] | 10 to 100 nM | 
9 | CC(Cc1cc(C2CC2)cn2cc(Cn3cc(C(=O)NCc4ncn5ccc(Cl)c(F)c45)nn3)nc12)C(=O)O (stereo not drawn) [Example I-245b, 3-(2-((4-(((7-chloro-8-fluoroimidazo[1,5-a]pyridin-1-yl)methyl)carbamoyl)-1H-1,2,3-triazol-1-yl)methyl)-6-cyclopropylimidazo[1,2-a]pyridin-8-yl)-2-methylpropanoic acid] | < 1 nM | 
10 | CCOC(=O)CCc1cc(C2CC2)cn2cc(Cn3cc(C(=O)NCc4ncn5ccc(Cl)cc45)cn3)nc12 [Example I-100b, ethyl 3-(2-((4-(((7-chloroimidazo[1,5-a]pyridin-1-yl)methyl)carbamoyl)-1H-pyrazol-1-yl)methyl)-6-cyclopropylimidazo[1,2-a]pyridin-8-yl)propanoate] | < 1 nM | 
11 | O=C(NCc1ncn2ccc(Cl)c(F)c12)c1cn(Cc2cn3cc(C4CC4)ccc3n2)cn1 [Example I-271, N-((7-chloro-8-fluoroimidazo[1,5-a]pyridin-1-yl)methyl)-1-((6-cyclopropylimidazo[1,2-a]pyridin-2-yl)methyl)-1H-imidazole-4-carboxamide] | < 1 nM | 
12 | O=C(NCc1ncn2ccc(Cl)c(F)c12)c1cn(Cc2cc3cc(C4CC4)ccn3n2)nn1 [Example I-175, N-((7-chloro-8-fluoroimidazo[1,5-a]pyridin-1-yl)methyl)-1-((5-cyclopropylpyrazolo[1,5-a]pyridin-2-yl)methyl)-1H-1,2,3-triazole-4-carboxamide] | < 1 nM | 
13 | O=C(NCc1ncn2ccc(Cl)c(F)c12)c1cn(Cc2cc3ccc(C4CC4)cn3c2)nn1 [Example I-256, N-((7-chloro-8-fluoroimidazo[1,5-a]pyridin-1-yl)methyl)-1-((6-cyclopropylindolizin-2-yl)methyl)-1H-1,2,3-triazole-4-carboxamide] | 1 to 10 nM | 
14 | O=C(NCc1ncn2ccc(Cl)c(F)c12)c1nnc(Cc2cn3cc(C4CC4)ccc3n2)o1 [Example I-137, N-((7-chloro-8-fluoroimidazo[1,5-a]pyridin-1-yl)methyl)-5-((6-cyclopropylimidazo[1,2-a]pyridin-2-yl)methyl)-1,3,4-oxadiazole-2-carboxamide] | < 1 nM | 
15 | CN(C)CCOCc1cc(C2CC2)cn2cc(Cn3cc(C(=O)NCc4ncn5ccc(Cl)c(F)c45)nn3)nc12 [Example I-299, N-((7-chloro-8-fluoroimidazo[1,5-a]pyridin-1-yl)methyl)-1-((6-cyclopropyl-8-((2-(dimethylamino)ethoxy)methyl)imidazo[1,2-a]pyridin-2-yl)methyl)-1H-1,2,3-triazole-4-carboxamide] | < 1 nM | 
16 | O=C(O)Cc1cc(C2CC2)cn2cc(Cn3cc(C(=O)NCc4ncn5ccc(Cl)cc45)cn3)nc12 [Example I-86, 2-(2-((4-(((7-chloroimidazo[1,5-a]pyridin-1-yl)methyl)carbamoyl)-1H-pyrazol-1-yl)methyl)-6-cyclopropylimidazo[1,2-a]pyridin-8-yl)acetic acid] | < 1 nM | 
17 | O=C(NCc1ncn2ccc(Cl)cc12)c1cn(Cc2cn3cc(C4CC4)ccc3n2)c2cccnc12 [Example I-29, N-((7-chloroimidazo[1,5-a]pyridin-1-yl)methyl)-1-((6-cyclopropylimidazo[1,2-a]pyridin-2-yl)methyl)-1H-pyrrolo[3,2-b]pyridine-3-carboxamide] |  | EC50: 10 to 100 nM
18 | O=C(NCc1ncn2ccc(Cl)cc12)c1ccnc(Cc2ccc3ncc(Cl)cc3c2)c1 [drawing 399, reference compound] |  | EC50 (comparative compounds (Table II), assay format with 500 pM (500 μM in the source) activated kallikrein, read-out: Primary Dose Response Assay: Average EC50): 10 to 100 nM
19 | O=C(NCc1ncn2ccc(Cl)c(F)c12)c1nnc(C(F)(F)c2cn3cc(C4CC4)ccc3n2)o1 [Example I-243, N-((7-chloro-8-fluoroimidazo[1,5-a]pyridin-1-yl)methyl)-5-((6-cyclopropylimidazo[1,2-a]pyridin-2-yl)difluoromethyl)-1,3,4-oxadiazole-2-carboxamide] | 1 to 10 nM | 
20 | O=C(NCc1ncn2ccc(Cl)cc12)c1nnn(Cc2cn3cc(C4CC4)ccc3n2)n1 [Example I-110, N-((7-chloroimidazo[1,5-a]pyridin-1-yl)methyl)-2-((6-cyclopropylimidazo[1,2-a]pyridin-2-yl)methyl)-2H-tetrazole-5-carboxamide] | < 1 nM | 
21 | Nc1ccc2c(CNC(=O)c3cnn(Cc4cn5cc(C6CC6)ccc5n4)c3)ncn2c1 [Example I-53, N-((6-aminoimidazo[1,5-a]pyridin-1-yl)methyl)-1-((6-cyclopropylimidazo[1,2-a]pyridin-2-yl)methyl)-1H-pyrazole-4-carboxamide] | 100 to 2000 nM | 
